Assay: refractive index (Na D-line) (dimensionless); xn = mol fraction of the nth substance listed
Details: 100 kPa, Liquid, Standard Abbe refractometry

CCOC(=O)CCC(=O)OCC [diethyl butanedioate] + CC(C)CCO
refractive index
Details	x1 = 0.1	x1 = 0.2	x1 = 0.3	x1 = 0.3999	x1 = 0.5	x1 = 0.5999	x1 = 0.7	x1 = 0.7999	x1 = 0.9002	x1 = 1
288.15 K	1.41	1.4114	1.4129	1.4144	1.4158	1.4172	1.4184	1.4197	1.4208	1.4217
293.15 K	1.4079	1.4093	1.4108	1.4123	1.4136	1.415	1.4163	1.4175	1.4186	1.4195
298.15 K	1.4058	1.4072	1.4087	1.4101	1.4115	1.4128	1.414	1.4153	1.4164	1.4173
303.15 K	1.4037	1.4051	1.4065	1.4079	1.4093	1.4106	1.4119	1.4131	1.4142	1.4151
308.15 K	1.4016	1.4029	1.4043	1.4057	1.4071	1.4084	1.4096	1.4108	1.412	1.4129
313.15 K	1.3996	1.4008	1.4022	1.4036	1.4049	1.4062	1.4075	1.4087	1.4098	1.4108
318.15 K	1.3975	1.3988	1.4001	1.4014	1.4028	1.4041	1.4054	1.4066	1.4077	1.4088
323.15 K	1.3954	1.3966	1.398	1.3993	1.4006	1.4019	1.4032	1.4045	1.4056	1.4067

CCOC(=O)CCC(=O)OCC [diethyl butanedioate] + CC(C)CO
refractive index
Details	x1 = 0.0999	x1 = 0.2	x1 = 0.3001	x1 = 0.4	x1 = 0.4999	x1 = 0.5999	x1 = 0.6999	x1 = 0.8	x1 = 0.9	x1 = 1
288.15 K	1.4016	1.4047	1.4076	1.4103	1.4127	1.4148	1.4168	1.4186	1.4203	1.4217
293.15 K	1.3995	1.4025	1.4055	1.4081	1.4105	1.4127	1.4146	1.4164	1.4181	1.4195
298.15 K	1.3974	1.4004	1.4033	1.4059	1.4083	1.4104	1.4124	1.4142	1.4159	1.4173
303.15 K	1.3952	1.3982	1.4011	1.4037	1.4061	1.4082	1.4102	1.412	1.4137	1.4151
308.15 K	1.3929	1.396	1.3989	1.4015	1.4038	1.406	1.408	1.4098	1.4115	1.4129
313.15 K	1.3908	1.3938	1.3966	1.3992	1.4016	1.4037	1.4058	1.4076	1.4093	1.4108
318.15 K	1.3886	1.3916	1.3943	1.397	1.3993	1.4015	1.4036	1.4054	1.4071	1.4088
323.15 K	1.3863	1.3894	1.3921	1.3947	1.3971	1.3993	1.4013	1.4032	1.405	1.4067

CCCCCCCC(=O)OCC [ethyl octanoate] + CC(C)CCO
refractive index
Details	x1 = 0.1	x1 = 0.2001	x1 = 0.3	x1 = 0.4	x1 = 0.5001	x1 = 0.5999	x1 = 0.7003	x1 = 0.7998	x1 = 0.9001	x1 = 1
288.15 K	1.4104	1.412	1.4134	1.4146	1.4156	1.4166	1.4175	1.4183	1.4191	1.4199
293.15 K	1.4083	1.4099	1.4112	1.4124	1.4135	1.4144	1.4153	1.4161	1.4169	1.4177
298.15 K	1.4063	1.4078	1.4091	1.4102	1.4113	1.4122	1.4131	1.4139	1.4147	1.4155
303.15 K	1.4042	1.4056	1.4069	1.4081	1.4091	1.41	1.4109	1.4116	1.4125	1.4132
308.15 K	1.4021	1.4035	1.4047	1.4059	1.4069	1.4078	1.4087	1.4094	1.4102	1.411
313.15 K	1.3999	1.4013	1.4026	1.4037	1.4047	1.4056	1.4064	1.4072	1.408	1.4088
318.15 K	1.3978	1.3992	1.4004	1.4015	1.4024	1.4034	1.4042	1.405	1.4058	1.4066
323.15 K	1.3957	1.397	1.3982	1.3993	1.4003	1.4012	1.402	1.4027	1.4036	1.4044

CCCCCCCC(=O)OCC [ethyl octanoate] + CC(C)CO
refractive index
Details	x1 = 0.1001	x1 = 0.1999	x1 = 0.3	x1 = 0.4	x1 = 0.5	x1 = 0.5999	x1 = 0.6999	x1 = 0.7999	x1 = 0.9	x1 = 1
288.15 K	1.4018	1.4052	1.408	1.4102	1.4123	1.4142	1.4158	1.4173	1.4186	1.4199
293.15 K	1.3997	1.403	1.4058	1.408	1.4101	1.412	1.4136	1.4151	1.4164	1.4177
298.15 K	1.3976	1.4009	1.4036	1.4058	1.4079	1.4097	1.4114	1.4128	1.4142	1.4155
303.15 K	1.3955	1.3987	1.4014	1.4036	1.4056	1.4075	1.4091	1.4106	1.4119	1.4132
308.15 K	1.3933	1.3965	1.3992	1.4014	1.4034	1.4052	1.4069	1.4084	1.4097	1.411
313.15 K	1.3911	1.3942	1.3969	1.3991	1.4012	1.403	1.4046	1.4061	1.4075	1.4088
318.15 K	1.3889	1.392	1.3947	1.3968	1.3989	1.4007	1.4024	1.4039	1.4052	1.4066
323.15 K	1.3867	1.3898	1.3925	1.3946	1.3967	1.3985	1.4001	1.4017	1.403	1.4044

Source: the NIST ThermoML archive (doi:10.1016/j.jct.2016.09.030)
